Relative viability data for seven cell lines are collected here from the supplement of paper PMC10307832.

What all share (assay): relative viability (nuclei count vs DMSO), 5 days (fraction); higher = more cells survive
Compound in the assay “GW-2580 + Crizotinib”: COC1=CC=C(C=C1)COC2=C(C=C(C=C2)CC3=CN=C(N=C3N)N)OC [GW-2580] + C[C@@H](Oc1cc(-c2cnn(C3CCNCC3)c2)cnc1N)c1c(Cl)ccc(F)c1Cl [Crizotinib] (partner 1 µM)
An outline of the steps: (§1)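 Five library-drug doses in √10 steps were combined with a fixed anchor-drug dose, or a single drug was given alone, by pin tool to lung cancer cell lines in 1536-well plates the day after seeding. Nuclei were stained and counted after 5 days. Relative viability is the nuclei count in treated wells over that in vehicle wells, taken as the median of duplicate plates.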

Compound in the assay “GW-2580 + Tozasertib”: COC1=CC=C(C=C1)COC2=C(C=C(C=C2)CC3=CN=C(N=C3N)N)OC [GW-2580] + Cc1cc(Nc2cc(N3CCN(C)CC3)nc(Sc3ccc(NC(=O)C4CC4)cc3)n2)n[nH]1 [Tozasertib] (partner 0.1 µM)
A digest of the protocol:
as §1

Compound in the assay “Fedratinib + Trametinib”: Cc1cnc(Nc2ccc(OCCN3CCCC3)cc2)nc1Nc1cccc(S(=O)(=O)NC(C)(C)C)c1 [Fedratinib] + CC(=O)Nc1cccc(-n2c(=O)n(C3CC3)c(=O)c3c(Nc4ccc(I)cc4F)n(C)c(=O)c(C)c32)c1 [Trametinib] (partner 0.02 µM)
A digest of the protocol: as §1

Compound in the assay “Fedratinib + Bortezomib”: Cc1cnc(Nc2ccc(OCCN3CCCC3)cc2)nc1Nc1cccc(S(=O)(=O)NC(C)(C)C)c1 [Fedratinib] + CC(C)C[C@H](NC(=O)[C@H](Cc1ccccc1)NC(=O)c1cnccn1)B(O)O [Bortezomib] (partner 0.002 µM)
A digest of the protocol:
as §1

Compound in the assay “Fedratinib + Foretinib”: Cc1cnc(Nc2ccc(OCCN3CCCC3)cc2)nc1Nc1cccc(S(=O)(=O)NC(C)(C)C)c1 [Fedratinib] + COc1cc2c(Oc3ccc(NC(=O)C4(C(=O)Nc5ccc(F)cc5)CC4)cc3F)ccnc2cc1OCCCN1CCOCC1 [Foretinib] (partner 0.25 µM)
An outline of the steps:
as §1

Compound in the assay “Fedratinib + Linsitinib”: Cc1cnc(Nc2ccc(OCCN3CCCC3)cc2)nc1Nc1cccc(S(=O)(=O)NC(C)(C)C)c1 [Fedratinib] + C[C@]1(O)C[C@@H](c2nc(-c3ccc4ccc(-c5ccccc5)nc4c3)c3c(N)nccn32)C1 [Linsitinib] (partner 1 µM)
An outline of the steps:
as §1

For the cell line NCI-H3122, the relative viability with GW-2580 + Crizotinib (first compound 0.08 µM) came to 0.286; in the assay with GW-2580 + Crizotinib (first compound 0.8 µM) it was 0.309; with GW-2580 + Crizotinib (first compound 2.53 µM), 0.247; with GW-2580 + Crizotinib (first compound 8 µM) it was 0.238; with GW-2580 + Tozasertib (first compound 0.08 µM), 0.549; with GW-2580 + Tozasertib (first compound 0.8 µM) it was 0.421. Moreover, the relative viability in the assay with GW-2580 + Tozasertib (first compound 2.53 µM) came out at 0.468; with GW-2580 + Tozasertib (first compound 8 µM), 0.362; with Fedratinib + Trametinib (first compound 0.1 µM), 0.242; with Fedratinib + Trametinib (first compound 0.3162 µM), 0.205; in the assay with Fedratinib + Trametinib (first compound 1 µM) it was 0.193; with Fedratinib + Bortezomib (first compound 0.1 µM), 0.991. Also, the relative viability was found to be 0.981 with Fedratinib + Bortezomib (first compound 0.3162 µM); 0.485 with Fedratinib + Bortezomib (first compound 1 µM); 0.956 with Fedratinib + Foretinib (first compound 0.1 µM); 0.9 in the assay with Fedratinib + Foretinib (first compound 0.3162 µM); 0.941 with Fedratinib + Foretinib (first compound 1 µM); 1.02 with Fedratinib + Linsitinib (first compound 0.1 µM). For the same cell line, the relative viability was found to be 1.01 with Fedratinib + Linsitinib (first compound 0.3162 µM) and 0.948 with Fedratinib + Linsitinib (first compound 1 µM).
For PC-3 [JPC-3], the relative viability with GW-2580 + Crizotinib (first compound 0.08 µM) came out at 0.985; with GW-2580 + Crizotinib (first compound 0.8 µM), 1.08; with GW-2580 + Crizotinib (first compound 2.53 µM), 0.98; in the assay with GW-2580 + Crizotinib (first compound 8 µM) it was 0.945; in the assay with GW-2580 + Tozasertib (first compound 0.08 µM), 0.89; with GW-2580 + Tozasertib (first compound 0.8 µM), 0.916. Besides, the relative viability in the assay with GW-2580 + Tozasertib (first compound 2.53 µM) came out at 0.891; with GW-2580 + Tozasertib (first compound 8 µM), 0.854; in the assay with Fedratinib + Trametinib (first compound 0.1 µM), 0.561; with Fedratinib + Trametinib (first compound 0.3162 µM), 0.757; in the assay with Fedratinib + Trametinib (first compound 1 µM), 0.655; with Fedratinib + Bortezomib (first compound 0.1 µM) it was 0.796. Besides, the relative viability in the assay with Fedratinib + Bortezomib (first compound 0.3162 µM) was 0.781; in the assay with Fedratinib + Bortezomib (first compound 1 µM), 0.869; with Fedratinib + Foretinib (first compound 0.1 µM), 0.982; in the assay with Fedratinib + Foretinib (first compound 0.3162 µM) it was 1.08; with Fedratinib + Foretinib (first compound 1 µM), 1.06; in the assay with Fedratinib + Linsitinib (first compound 0.1 µM) it was 0.924. Further, the relative viability is 0.932 with Fedratinib + Linsitinib (first compound 0.3162 µM) and 0.951 in the assay with Fedratinib + Linsitinib (first compound 1 µM).
For PC-14, the relative viability was found to be 0.949 with GW-2580 + Crizotinib (first compound 0.08 µM); 1.04 with GW-2580 + Crizotinib (first compound 0.8 µM); 0.907 with GW-2580 + Crizotinib (first compound 2.53 µM); 0.899 with GW-2580 + Crizotinib (first compound 8 µM); 0.665 with GW-2580 + Tozasertib (first compound 0.08 µM); 0.68 with GW-2580 + Tozasertib (first compound 0.8 µM). Further, the relative viability with GW-2580 + Tozasertib (first compound 2.53 µM) amounted to 0.514; with GW-2580 + Tozasertib (first compound 8 µM), 0.468; with Fedratinib + Trametinib (first compound 0.1 µM), 0.692; with Fedratinib + Trametinib (first compound 0.3162 µM), 0.871; with Fedratinib + Trametinib (first compound 1 µM), 0.554; in the assay with Fedratinib + Bortezomib (first compound 0.1 µM) it was 0.885. Besides, the relative viability was 0.81 with Fedratinib + Bortezomib (first compound 0.3162 µM); 0.951 in the assay with Fedratinib + Bortezomib (first compound 1 µM); 0.975 with Fedratinib + Foretinib (first compound 0.1 µM); 1.08 in the assay with Fedratinib + Foretinib (first compound 0.3162 µM); 1 with Fedratinib + Foretinib (first compound 1 µM); 0.927 with Fedratinib + Linsitinib (first compound 0.1 µM). Besides, the relative viability is 1.03 in the assay with Fedratinib + Linsitinib (first compound 0.3162 µM) and 0.92 with Fedratinib + Linsitinib (first compound 1 µM).
Regarding RERF-LC-KJ, the relative viability came to 0.818 with GW-2580 + Crizotinib (first compound 0.08 µM); 0.915 with GW-2580 + Crizotinib (first compound 0.8 µM); 0.778 with GW-2580 + Crizotinib (first compound 2.53 µM); 0.76 with GW-2580 + Crizotinib (first compound 8 µM); 0.474 with GW-2580 + Tozasertib (first compound 0.08 µM); 0.593 with GW-2580 + Tozasertib (first compound 0.8 µM). For the same cell line, the relative viability with GW-2580 + Tozasertib (first compound 2.53 µM) worked out at 0.508; in the assay with GW-2580 + Tozasertib (first compound 8 µM) it was 0.367; with Fedratinib + Trametinib (first compound 0.1 µM), 0.787; with Fedratinib + Trametinib (first compound 0.3162 µM) it was 0.813; with Fedratinib + Trametinib (first compound 1 µM), 0.858; in the assay with Fedratinib + Bortezomib (first compound 0.1 µM), 1.06. The relative viability with Fedratinib + Bortezomib (first compound 0.3162 µM) was 1.16; with Fedratinib + Bortezomib (first compound 1 µM) it was 1.05; in the assay with Fedratinib + Foretinib (first compound 0.1 µM) it was 0.883; with Fedratinib + Foretinib (first compound 0.3162 µM) it was 0.904; with Fedratinib + Foretinib (first compound 1 µM) it was 0.864; with Fedratinib + Linsitinib (first compound 0.1 µM), 0.805. The relative viability in the assay with Fedratinib + Linsitinib (first compound 0.3162 µM) came out at 0.906; with Fedratinib + Linsitinib (first compound 1 µM), 0.855.
Take SK-LU-1: the relative viability with GW-2580 + Crizotinib (first compound 0.08 µM) was determined as 1; with GW-2580 + Crizotinib (first compound 0.8 µM), 1.08; with GW-2580 + Crizotinib (first compound 2.53 µM), 0.798; with GW-2580 + Crizotinib (first compound 8 µM) it was 1.06; with GW-2580 + Tozasertib (first compound 0.08 µM) it was 0.362; with GW-2580 + Tozasertib (first compound 0.8 µM), 0.338. Moreover, the relative viability with GW-2580 + Tozasertib (first compound 2.53 µM) is 0.272; with GW-2580 + Tozasertib (first compound 8 µM), 0.292; with Fedratinib + Trametinib (first compound 0.1 µM) it was 0.498; with Fedratinib + Trametinib (first compound 0.3162 µM), 0.454; with Fedratinib + Trametinib (first compound 1 µM) it was 0.479; with Fedratinib + Bortezomib (first compound 0.1 µM) it was 1.33. The relative viability stood at 1.23 in the assay with Fedratinib + Bortezomib (first compound 0.3162 µM); 0.967 in the assay with Fedratinib + Bortezomib (first compound 1 µM); 0.819 with Fedratinib + Foretinib (first compound 0.1 µM); 0.78 with Fedratinib + Foretinib (first compound 0.3162 µM); 0.504 with Fedratinib + Foretinib (first compound 1 µM); 0.999 with Fedratinib + Linsitinib (first compound 0.3162 µM). Besides, the relative viability in the assay with Fedratinib + Linsitinib (first compound 1 µM) came out at 1.01.
In the case of SW 1573, the relative viability with GW-2580 + Crizotinib (first compound 0.08 µM) is 0.73; in the assay with GW-2580 + Crizotinib (first compound 0.8 µM) it was 0.764; in the assay with GW-2580 + Crizotinib (first compound 2.53 µM) it was 0.803; with GW-2580 + Crizotinib (first compound 8 µM) it was 0.643; in the assay with GW-2580 + Tozasertib (first compound 0.08 µM), 0.183; in the assay with GW-2580 + Tozasertib (first compound 0.8 µM) it was 0.2. The relative viability with GW-2580 + Tozasertib (first compound 2.53 µM) came to 0.219; with GW-2580 + Tozasertib (first compound 8 µM), 0.24; with Fedratinib + Trametinib (first compound 0.1 µM), 0.489; with Fedratinib + Trametinib (first compound 0.3162 µM), 0.538; in the assay with Fedratinib + Trametinib (first compound 1 µM), 0.402; in the assay with Fedratinib + Bortezomib (first compound 0.1 µM) it was 1.05. The relative viability with Fedratinib + Bortezomib (first compound 0.3162 µM) was 0.911; with Fedratinib + Bortezomib (first compound 1 µM), 0.983; with Fedratinib + Foretinib (first compound 0.1 µM), 0.906; in the assay with Fedratinib + Foretinib (first compound 0.3162 µM) it was 0.947; with Fedratinib + Foretinib (first compound 1 µM) it was 0.807; with Fedratinib + Linsitinib (first compound 0.1 µM), 0.683. The relative viability in the assay with Fedratinib + Linsitinib (first compound 0.3162 µM) amounted to 0.768; with Fedratinib + Linsitinib (first compound 1 µM), 0.802.
For UMC-11, the relative viability with GW-2580 + Crizotinib (first compound 0.08 µM) amounted to 0.599; with GW-2580 + Crizotinib (first compound 0.8 µM) it was 0.614; in the assay with GW-2580 + Crizotinib (first compound 2.53 µM) it was 0.585; with GW-2580 + Crizotinib (first compound 8 µM), 0.601; with GW-2580 + Tozasertib (first compound 0.08 µM) it was 0.206; in the assay with GW-2580 + Tozasertib (first compound 0.8 µM), 0.284. The relative viability turned out to be 0.198 in the assay with GW-2580 + Tozasertib (first compound 2.53 µM); 0.197 in the assay with GW-2580 + Tozasertib (first compound 8 µM); 0.625 with Fedratinib + Trametinib (first compound 0.1 µM); 0.476 in the assay with Fedratinib + Trametinib (first compound 0.3162 µM); 0.52 with Fedratinib + Trametinib (first compound 1 µM); 0.603 with Fedratinib + Bortezomib (first compound 0.1 µM). The relative viability stood at 0.758 with Fedratinib + Bortezomib (first compound 0.3162 µM); 0.396 with Fedratinib + Bortezomib (first compound 1 µM); 1.1 in the assay with Fedratinib + Foretinib (first compound 0.1 µM); 0.958 in the assay with Fedratinib + Foretinib (first compound 0.3162 µM); 0.706 with Fedratinib + Foretinib (first compound 1 µM); 0.995 in the assay with Fedratinib + Linsitinib (first compound 0.1 µM). Further, the relative viability in the assay with Fedratinib + Linsitinib (first compound 0.3162 µM) was found to be 0.864; with Fedratinib + Linsitinib (first compound 1 µM) it was 0.848.
